The nature of series [1]: Pharmacokinetics assay in rats. Particulars: SD rats, intragastric, 50 mg/Kg (as free acid), 50 mg/kg; for Vd/F / AUC / CL/F / half-life / MRT / Cmax / Tmax: both sexes, SD, rat, plasma, po; for Vd/F: read-out: Apparent Distribution Volume Vz/F; for AUC: read-out: Area Under Curve AUC; for CL/F: read-out: Clearance CL/F (converted); for half-life: read-out: Half-Life t½ (converted); for MRT: read-out: Mean Residence Time MRT; for Cmax: read-out: Plasma Conc. Cmax; for Tmax: read-out: Time to peak Tmax. The format is in vivo, SD rats. On the procedure:
The compounds of the present disclosure were administrated intragastrically to rats to determine the drug concentration in plasma at different time points by HPLC-UV. The pharmacokinetic behavior of the compounds of the present disclosure was studied and evaluated in rats. […] Healthy adult SD rats, male and female in half, were purchased from SINO-BRITSH SIPPR/BK LAB.ANIMAL LTD., Colo., License number: SCXK (Shanghai) 2003-0002 The test compound was diluted with 1% sodium carboxymethyl cellulose to 5 mg/mL (calculated as the free acid form) of suspension before use. Healthy adult SD rats, male and female in half, were divided into 23 groups. […] The plasma samples were stored at −20° C. until analysis. The rats were fed 2 hours after administration. […] Then the mixture was mixed for 3 minute using a vortexer and centrifuged for 10 minutes at 13,500 rpm. 40 μL of the supernatant was analyzed by HPLC-UV. The compartmental model of pharmacokinetics was fitted for the test compounds and the major pharmacokinetic parameters were calculated in which Cmax and tmax were the actually measured values.

A further series addresses T1, human TPOR (Homo sapiens, UniProt P40238).
T1 construct: host or cells: BaF3 (murine pro-B cells), stably transfected, G418-selected
T1 sequence (P40238 26-635): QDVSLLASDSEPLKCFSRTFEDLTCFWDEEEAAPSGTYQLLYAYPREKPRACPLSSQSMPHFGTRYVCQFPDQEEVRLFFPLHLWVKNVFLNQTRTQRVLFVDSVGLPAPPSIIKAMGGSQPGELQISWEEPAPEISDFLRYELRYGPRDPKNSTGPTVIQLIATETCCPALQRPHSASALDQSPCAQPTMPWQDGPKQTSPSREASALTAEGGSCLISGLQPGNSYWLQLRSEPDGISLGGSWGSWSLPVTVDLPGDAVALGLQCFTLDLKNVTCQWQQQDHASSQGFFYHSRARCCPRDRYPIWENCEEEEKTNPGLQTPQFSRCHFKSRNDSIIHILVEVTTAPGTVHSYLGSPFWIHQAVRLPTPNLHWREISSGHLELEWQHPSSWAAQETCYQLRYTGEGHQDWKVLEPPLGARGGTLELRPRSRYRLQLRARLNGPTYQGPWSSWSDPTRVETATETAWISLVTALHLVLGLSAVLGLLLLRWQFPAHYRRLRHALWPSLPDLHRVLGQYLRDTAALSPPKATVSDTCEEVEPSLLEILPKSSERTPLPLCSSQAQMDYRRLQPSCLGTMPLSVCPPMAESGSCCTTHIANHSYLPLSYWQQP
In words: Proliferation effect on BAF3-TPOR cell (CCK-8). The format is cell-based. Particulars: rate relative to rhTPO positive control. On the procedure: (1) Plasmid constructs: based on the TPO receptor (TPOR) sequence information from Entrez (Gene ID: 4325, Refseq: NM_005373), dual-site mutation was performed on EX-B0010-M02 plasmid by using QuikChange® Multi Site Directed Mutagenesis Kit (Stratagene). The sequence of primers containing multi-sites mutation was designed as follows: […]
The E. coli DH5α competent cells were transformed with mutated plasmid, and positive colonies were picked up through ampicillin selection. The mutation result was confirmed by sequence analysis.
(2) BAF3-TPOR stable transfected cell line: the following method was used to construct the BaF3 cell which stably over-expressed functional human TPOR. The successfully mutated EX-B0010-M02 plasmid ([…]) which expressed human TPOR and screening gene neomycin was transfected into wild-type BaF3 cells (1×10^7) by electroporation at 250V for 18 ms using an electric pulse generator (Electro Square Porator ECM830, BTX Division of Genetronic, Inc. US). The stable transfected cells BAF3-TPOR were selected with G418 (Gibco, US), then incubated in RPMI1640 medium plus 10% FBS (Gibco, US), […] G418, 5 ng/mL, rmIL-3 (Chemicon, US).
(1) Washing cells by centrifugation: a suitable amount of cell suspension was centrifuged at 1000 rpm for 5 minutes, and the supernatant was discarded. 10 mL of cell culture media without IL-3 was added. Then the resulting cell suspension was centrifuged at 1000 rpm for 5 minutes, and the supernatant was discarded.
(2) 1 mL of cell culture media without IL-3 was added to beat upon them to equality, and the number of a suitable amount of cell suspension was counted after dilution.
(3) According to the result of the cell counting, a cell suspension in a concentration of 100,000 cell/mL was prepared.
(4) 100 μL of cell suspension was transferred to each well of 96-well culture plate, and there were 3 parallel wells, that is, there were a blank control group (B), a negative control group (N), a positive control group of TPO (P) and a test compound group (S).
(5) The test compound was dissolved in DMSO to prepare a 10 mM stock solution, and then the solution was diluted with RPMI 1640 medium into a series of test samples at different concentration: 30 μM, 10 μM, 3 μM, 1 μM, 0.3 μM, 0.1 μM, 0.03 μM, 0.01 μM, 0.003 μM, 0.001 μM.
(6) 10 μL of test compound solution was transferred to each well respectively; 1 μL of rhTPO (10 ng/mL) was added to positive control well.
(7) The plates were incubated in an incubator at 5% CO2 and 37° C. for 24 hours.
(8) After incubation, 10 μL of CCK-8 solution was added to each well and the plates were incubated in the incubator for another 24 hours.
(9) OD value was detected at 450 nm by VICTORS (Perkin Elmer 1420-120) plate reader.
(1) The proliferation rate was calculated as follows: Rate=[(S−B)/(P−B)]*100%
S: OD value of wells which contain test compound.
B: OD value of blank control wells
P: OD value of positive control wells
(2) The EC50 value was calculated by Origin 7.0 software.

For orientation: EC50 means the concentration giving half of the maximal effect. Higher therefore signals weaker potency. For the compound `CC1=NN(c2ccc3c(c2)CCCC3)C(=O)/C1=N\Nc1cccc(-c2ccc(C(=O)O)o2)c1O` [Example 9, (Z)-5-(2-hydroxy-3-{N′-[3-methyl-5-oxo-1-(5,6,7,8-tetrahydro-naphthalen-2-yl)-1,5-dihydro-pyrazol-4-ylidene]-hydrazino}-phenyl)-furan-2-carboxylic acid bis-(diethylamine)], in series [1], the “Area Under Curve AUC” value turned out to be 146 ± 69.7 µg·h/mL, the “Clearance CL/F” value was determined as 6.52 ± 2.42 mL/min/kg, the “Half-Life t½” value came to 9.65 ± 2.48 h and the “Plasma Conc. Cmax” value came out at 21200 ± 10400 ng/mL. For the same compound, the “Time to peak Tmax” value in series [1] came to 2.88 ± 2.59 h. This compound yielded an EC50 at human TPOR of 0.014 µM.
Regarding `CC1=NN(c2ccc3c(c2)CCCC3)C(=O)/C1=N\Nc1cccc(-c2ccc(C(=O)O)o2)c1O` [Example 15, (Z)-5-(2-hydroxy-3-{N′-[3-methyl-5-oxo-1-(5,6,7,8-tetrahydro-naphthalen-2-yl)-1,5-dihydro-pyrazol-4-ylidene]-hydrazino}-phenyl)-furan-2-carboxylic acid bis-(L-arginine)], in series [1], the “Area Under Curve AUC” value was determined as 168 ± 118 µg·h/mL, the “Clearance CL/F” value amounted to 12.6 ± 16.6 mL/min/kg, the “Half-Life t½” value was 6.56 ± 3.80 h and the “Plasma Conc. Cmax” value is 23300 ± 13600 ng/mL. For the same compound, in series [1], the “Time to peak Tmax” value came out at 2.0 ± 1.16 h. In addition, at human TPOR, the response was half-maximal at 0.016 µM (EC50).
As a reminder, the AUC is concentration integrated over time. For orientation: half-life means the time needed for the level to fall by half in the phase considered. What is called MRT is the average time that molecules of a dose stay in the body. As a reminder, the Cmax is the highest concentration seen after dosing. The term Tmax denotes the time from dosing to the highest level. As for `CC1=NN(c2ccc3c(c2)CCCC3)C(=O)/C1=N\Nc1cccc(-c2coc(C(=O)O)c2)c1O.NCCO.NCCO` [Example 22, (Z)-4-(2-Hydroxy-3-{N′-[3-methyl-5-oxo-1-(5,6,7,8-tetrahydro-naphthal-2-yl)-1,5-dihydro-pyrazol-4-ylidene]-hydrazino}-phenyl)-furan-2-carboxylic acid bis-(ethanolamine)], in series [1], the Vd/F amounted to 3.41 ± 1.75 L/kg, the AUC came to 603 ± 240 µg·h/mL, the CL/F is 4 mL/min/kg and the half-life was 9.95 ± 0.6 h. In series [1], the MRT is 14.8 ± 1 h, the Cmax was 39800 ± 18200 ng/mL and the Tmax is 5 ± 2 h. Further, a half-maximal effect on human TPOR (EC50) was put at 0.039 µM.
As for `CC1=NN(c2ccc3c(c2)C(C)(C)CC3)C(=O)/C1=N\Nc1cccc(-c2ccc(C(=O)O)o2)c1O` [Example 5, (Z)-5-(3-{N′-[1-(3,3-dimethyl-indan-5-yl)-3-methyl-5-oxo-1,5-dihydro-pyrazol-4-ylidene]-hydrazino}-2-hydroxy-phenyl)-furan-2-carboxylic acid bis-(diethylamine)], in series [1], the “Area Under Curve AUC” value was 255 ± 95 µg·h/mL, the “Clearance CL/F” value worked out at 3.67 ± 1.2 mL/min/kg, the “Half-Life t½” value was found to be 15.0 ± 6.2 h and the “Mean Residence Time MRT” value is listed as 20.8 ± 9.1 h. Also, in series [1], the “Plasma Conc. Cmax” value is 19800 ± 3800 ng/mL and the “Time to peak Tmax” value turned out to be 3.25 ± 1.5 h. For the same compound, the EC50 at human TPOR is 0.019 µM.
Consider `CC1=NN(c2ccc3c(c2)CCCC3)C(=O)/C1=N\Nc1cccc(-c2ccc(C(=O)O)o2)c1O` [Example 13, (Z)-5-(2-hydroxy-3-{N′-[3-methyl-5-oxo-1-(5,6,7,8-tetrahydro-naphthalen-2-yl)-1,5-dihydro-pyrazol-4-ylidene]-hydrazino}-phenyl)-furan-2-carboxylic acid bis-(dibenzylethylenediamine)], for which, in series [1], the “Area Under Curve AUC” value amounted to 42.8 ± 33.2 µg·h/mL, the “Clearance CL/F” value came to 27.2 ± 13.8 mL/min/kg, the “Half-Life t½” value is 5.70 ± 2.50 h and the “Plasma Conc. Cmax” value is 8100 ± 3350 ng/mL. In addition, the “Time to peak Tmax” value in series [1] turned out to be 1.38 ± 1.11 h. The same compound showed an EC50 on human TPOR of 0.02 µM.
As for `CC1=NN(c2ccc3c(c2)CCCC3)C(=O)/C1=N\Nc1cccc(-c2coc(C(=O)O)c2)c1O` [Example 22f, (Z)-4-(2-hydroxy-3-{N′-[3-methyl-5-oxo-1-(5,6,7,8-tetrahydro-naphthal-2-yl)-1,5-dihydro-pyrazol-4-ylidene]-hydrazino}-phenyl)-furan-2-carboxylic acid], in series [1], the Vd/F stood at 8.49 ± 2.16 L/kg, the AUC came to 151 ± 97 µg·h/mL, the CL/F was 11.5 mL/min/kg and the half-life was 9.21 ± 1.57 h. For the same compound, in series [1], the MRT was 11.8 ± 4.5 h, the Cmax is 8730 ± 2580 ng/mL and the Tmax amounted to 4.25 ± 1.26 h. At human TPOR, this compound registered an EC50 of 0.042 µM.

Values taken from patent US9120762B2, “Salts of bicyclo-substituted pyrazolon azo derivatives, preparation method and use thereof” (Jiangsu Hengrui Medicine Co., Ltd., priority 2009, dated 2015).
